Results published in the supplement of paper PMC10307832.

Legend:
Assay in all cases: relative viability (nuclei count vs DMSO), 5 days (fraction); higher = more cells survive
NCI-H1993 = system: NCI-H1993
In short: (§1)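 Lung cancer cell lines in 1536-well plates got either a single drug or a fixed anchor-drug dose together with five library-drug doses (not always all listed) in √10 steps, by pin tool, on the day after seeding. Nuclei were counted after 5 days, and relative viability is the treated-to-vehicle ratio of nuclei counts. Values are medians of duplicate plates.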

EBC-1 = system: EBC-1
In short: as §1

IA-LM = system: IA-LM
In short: as §1

NCI-H23 = system: NCI-H23
In short: as §1

NCI-H1703 = system: NCI-H1703
In short: as §1

NCI-H596 = system: NCI-H596
In short: as §1

LCLC-97TM1 = system: LCLC-97TM1
In short: as §1

NCI-H1299 = system: NCI-H1299
In short: as §1

UMC-11 = system: UMC-11
In short: as §1

NCI-H1355 = system: NCI-H1355
In short: as §1

NCI-H322M = system: NCI-H322M
In short: as §1

Calu-6 = system: Calu-6
In short: as §1

O=c1cc(N2CCOCC2)oc2c(-c3cccc4c3sc3ccccc34)cccc12 + CC(C)C[C@H](NC(=O)[C@H](Cc1ccccc1)NC(=O)c1cnccn1)B(O)O [Bortezomib] (partner 0.002 µM)
relative viability (NCI-H1993; first compound 0.01 µM): 1
relative viability (NCI-H1993; first compound 0.03162 µM): 1.09
relative viability (NCI-H1993; first compound 0.1 µM): 1.33
relative viability (NCI-H1993; first compound 0.3162 µM): 1.11
relative viability (NCI-H1993; first compound 1 µM): 1.07
relative viability (EBC-1; first compound 0.01 µM): 0.569
relative viability (EBC-1; first compound 0.03162 µM): 0.538
relative viability (EBC-1; first compound 0.1 µM): 0.505
relative viability (EBC-1; first compound 0.3162 µM): 0.555
relative viability (EBC-1; first compound 1 µM): 0.49
relative viability (IA-LM; first compound 0.01 µM): 0.837
relative viability (IA-LM; first compound 0.03162 µM): 0.904
relative viability (IA-LM; first compound 0.1 µM): 0.784
relative viability (IA-LM; first compound 0.3162 µM): 0.896
relative viability (IA-LM; first compound 1 µM): 0.74
relative viability (NCI-H23; first compound 0.01 µM): 1.13
relative viability (NCI-H23; first compound 0.03162 µM): 1.08
relative viability (NCI-H23; first compound 0.3162 µM): 1.01
relative viability (NCI-H23; first compound 1 µM): 0.946
relative viability (NCI-H1703; first compound 0.01 µM): 0.333
relative viability (NCI-H1703; first compound 0.03162 µM): 0.274
relative viability (NCI-H1703; first compound 0.1 µM): 0.356
relative viability (NCI-H1703; first compound 0.3162 µM): 0.403
relative viability (NCI-H1703; first compound 1 µM): 0.296
relative viability (NCI-H596; first compound 0.01 µM): 0.897
relative viability (NCI-H596; first compound 0.03162 µM): 1.07
relative viability (NCI-H596; first compound 0.1 µM): 1.37
relative viability (NCI-H596; first compound 0.3162 µM): 1.06
relative viability (NCI-H596; first compound 1 µM): 1.08
relative viability (LCLC-97TM1; first compound 0.01 µM): 0.678
relative viability (LCLC-97TM1; first compound 0.03162 µM): 0.535
relative viability (LCLC-97TM1; first compound 0.1 µM): 0.473
relative viability (LCLC-97TM1; first compound 0.3162 µM): 0.751
relative viability (LCLC-97TM1; first compound 1 µM): 0.406
relative viability (NCI-H1299; first compound 0.01 µM): 1.04
relative viability (NCI-H1299; first compound 0.03162 µM): 1.01
relative viability (NCI-H1299; first compound 0.1 µM): 0.984
relative viability (NCI-H1299; first compound 0.3162 µM): 1.03
relative viability (NCI-H1299; first compound 1 µM): 1.08
relative viability (UMC-11; first compound 0.01 µM): 0.63
relative viability (UMC-11; first compound 0.03162 µM): 0.505
relative viability (UMC-11; first compound 0.1 µM): 0.72
relative viability (UMC-11; first compound 0.3162 µM): 0.736
relative viability (UMC-11; first compound 1 µM): 0.728
relative viability (NCI-H1355; first compound 0.01 µM): 1.26
relative viability (NCI-H1355; first compound 0.03162 µM): 1.15
relative viability (NCI-H1355; first compound 0.3162 µM): 1.19
relative viability (NCI-H1355; first compound 1 µM): 1.25
relative viability (NCI-H322M; first compound 0.01 µM): 1.24
relative viability (NCI-H322M; first compound 0.03162 µM): 1.39
relative viability (NCI-H322M; first compound 0.3162 µM): 1.19
relative viability (NCI-H322M; first compound 1 µM): 1.03
relative viability (Calu-6; first compound 0.01 µM): 1.04
relative viability (Calu-6; first compound 0.03162 µM): 1.05
relative viability (Calu-6; first compound 0.1 µM): 1.01
relative viability (Calu-6; first compound 0.3162 µM): 0.969
relative viability (Calu-6; first compound 1 µM): 1.03

CCN(CC)CCCCNc1ncc2cc(-c3cc(OC)cc(OC)c3)c(NC(=O)NC(C)(C)C)nc2n1 + CC(C)C[C@H](NC(=O)[C@H](Cc1ccccc1)NC(=O)c1cnccn1)B(O)O [Bortezomib] (partner 0.002 µM)
relative viability (NCI-H1993; first compound 0.01 µM): 1
relative viability (NCI-H1993; first compound 0.03162 µM): 0.981
relative viability (NCI-H1993; first compound 0.1 µM): 1.26
relative viability (NCI-H1993; first compound 0.3162 µM): 1.41
relative viability (NCI-H1993; first compound 1 µM): 1.11
relative viability (EBC-1; first compound 0.01 µM): 0.554
relative viability (EBC-1; first compound 0.03162 µM): 0.599
relative viability (EBC-1; first compound 0.1 µM): 0.634
relative viability (EBC-1; first compound 0.3162 µM): 0.565
relative viability (EBC-1; first compound 1 µM): 0.458
relative viability (IA-LM; first compound 0.01 µM): 0.868
relative viability (IA-LM; first compound 0.03162 µM): 0.795
relative viability (IA-LM; first compound 0.1 µM): 0.977
relative viability (IA-LM; first compound 0.3162 µM): 0.557
relative viability (IA-LM; first compound 1 µM): 0.776
relative viability (NCI-H23; first compound 0.01 µM): 1.06
relative viability (NCI-H23; first compound 0.03162 µM): 1.24
relative viability (NCI-H23; first compound 0.1 µM): 1.09
relative viability (NCI-H23; first compound 0.3162 µM): 1.21
relative viability (NCI-H23; first compound 1 µM): 0.91
relative viability (NCI-H1703; first compound 0.01 µM): 0.343
relative viability (NCI-H1703; first compound 0.1 µM): 0.364
relative viability (NCI-H1703; first compound 0.3162 µM): 0.215
relative viability (NCI-H1703; first compound 1 µM): 0.236
relative viability (NCI-H596; first compound 0.01 µM): 0.976
relative viability (NCI-H596; first compound 0.03162 µM): 1.06
relative viability (NCI-H596; first compound 0.1 µM): 1.03
relative viability (NCI-H596; first compound 0.3162 µM): 1.16
relative viability (NCI-H596; first compound 1 µM): 0.923
relative viability (LCLC-97TM1; first compound 0.01 µM): 0.723
relative viability (LCLC-97TM1; first compound 0.03162 µM): 0.614
relative viability (LCLC-97TM1; first compound 0.1 µM): 0.789
relative viability (LCLC-97TM1; first compound 0.3162 µM): 1.54
relative viability (LCLC-97TM1; first compound 1 µM): 0.305
relative viability (NCI-H1299; first compound 0.01 µM): 1.11
relative viability (NCI-H1299; first compound 0.03162 µM): 1.02
relative viability (NCI-H1299; first compound 0.1 µM): 1.03
relative viability (NCI-H1299; first compound 0.3162 µM): 0.979
relative viability (NCI-H1299; first compound 1 µM): 0.954
relative viability (UMC-11; first compound 0.01 µM): 0.702
relative viability (UMC-11; first compound 0.03162 µM): 0.722
relative viability (UMC-11; first compound 0.1 µM): 0.73
relative viability (UMC-11; first compound 0.3162 µM): 0.945
relative viability (UMC-11; first compound 1 µM): 0.544
relative viability (NCI-H1355; first compound 0.01 µM): 1.23
relative viability (NCI-H1355; first compound 0.03162 µM): 1.25
relative viability (NCI-H1355; first compound 0.1 µM): 1.29
relative viability (NCI-H1355; first compound 0.3162 µM): 1.41
relative viability (NCI-H1355; first compound 1 µM): 1.13
relative viability (NCI-H322M; first compound 0.01 µM): 1.29
relative viability (NCI-H322M; first compound 0.03162 µM): 1.36
relative viability (NCI-H322M; first compound 0.1 µM): 1.35
relative viability (NCI-H322M; first compound 0.3162 µM): 1.39
relative viability (NCI-H322M; first compound 1 µM): 1.08
relative viability (Calu-6; first compound 0.01 µM): 1.01
relative viability (Calu-6; first compound 0.03162 µM): 1.11
relative viability (Calu-6; first compound 0.1 µM): 1.08
relative viability (Calu-6; first compound 0.3162 µM): 1.11
relative viability (Calu-6; first compound 1 µM): 0.996
